Results on three compounds are retold here after patent publication US5840696A (priority 1997, dated 1998).

The test system of assay [1] is constitutive nitric oxide synthase (cNOS). Put plainly: influence of L-NAME on urine flow rate responses in conscious rats.
In assay [2] the target is T1, central kappa-opioid receptors (Rattus norvegicus, UniProt P34975).
T1 construct: Anesthetized male Sprague-Dawley rats; from tissue; host or cells: central nervous system of conscious male Sprague-Dawley rats (in vivo, lateral cerebral ventricle injection)
The settings on record: 1 μg i.c.v. pretreatment, previous investigations; cited from earlier work.

T1 sequence (P34975 whole entry): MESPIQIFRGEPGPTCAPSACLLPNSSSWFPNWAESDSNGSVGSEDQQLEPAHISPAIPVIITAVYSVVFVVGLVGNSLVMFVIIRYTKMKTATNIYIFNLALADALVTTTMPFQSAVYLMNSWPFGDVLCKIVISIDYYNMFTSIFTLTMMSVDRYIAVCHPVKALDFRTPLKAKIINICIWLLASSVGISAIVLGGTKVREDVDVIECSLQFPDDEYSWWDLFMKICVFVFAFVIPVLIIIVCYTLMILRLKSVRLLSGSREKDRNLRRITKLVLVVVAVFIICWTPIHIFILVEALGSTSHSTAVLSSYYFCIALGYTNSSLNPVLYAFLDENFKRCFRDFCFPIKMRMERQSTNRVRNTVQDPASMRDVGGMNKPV

Regarding `NS(=O)(=O)c1cc(C(=O)O)c(NCc2ccco2)cc1Cl` [furosemide], the “urine flow rate (V) response after L-NAME” value in assay [1] (L-NAME pretreatment) is reported as “did not alter urine flow rate”.
On to `Oc1ccc2c3c1O[C@H]1c4[nH]c5c(c4C[C@@]4(O)[C@@H](C2)N(CC2CC2)CC[C@]314)C[C@@]1(O)[C@H]2Cc3ccc(O)c4c3[C@@]1(CCN2CC1CC1)[C@H]5O4` [nor-binaltorphimine], for which the “effect on renal responses produced by i.c.v. U50,488H (1 μg)” value in assay [2] is “completely and selectively prevented”.
Consider `COC(=O)[C@@H](N)CCCNC(=N)N[N+](=O)[O-]` [L-NAME, L-nitro arginine methyl ester], for which the “baseline urine flow rate (V)” value in assay [1] (30 mg/Kg i.v.) is “did not alter baseline urine flow rate”.
